{"source": "patent US20160228444A1", "about": "“NUCLEOSIDE ANALOGS AND USES THEREOF” (Ramot at Tel-Aviv University Ltd., priority 2015, published 2016)", "key": {"[1]": {"tested_on": "IL-6", "assay": "IL-6 in supernatant of LPS-treated THP1 cells (ELISA)", "assay_type": "cell-based", "conditions": "1 μg/ml LPS, AN446 20 or 40 μM, FIG. 7B", "method": "(§1) The effect of AN446 on inflammation-associated pathways was evaluated in the monocytic THP1 cell line and in the MDA-MB-231 breast carcinoma cell line. Supernatants of treated THP1 cells were collected and IL-6, IL-10 and TNF-α concentrations were quantified by ELISA (R&D systems). TLR4 expression in THP1 cells was assessed using fluorescent anti-TLR4 antibodies and FACS analysis. In addition, gene expression for MCP-1, TNF-α and TLR4 in MDA-MB-231 was evaluated by qRT-PCT, following treatment with AN446 and/or paclitaxel."}, "[2]": {"tested_on": "c-Myc", "assay": "c-Myc and p-c-Myc (Thr 58) Western blot in tumor and heart of xenograft mice", "assay_type": "in vivo", "method": "Protein levels in the samples were determined with the BCA protein assay kit (Pierce). The samples were subjected to Western blot analyses. The expression of proteins was visualized using their specified primary antibodies followed by the secondary IgG IRDye® 680DX antibody. Each detected band was quantified using the Odyssey Infrared Imaging System (LI-COR Biosciences) and normalized to the level of actin. The fold increase of a specific protein was determined by the ratio of the band intensity obtained from treated and untreated samples.\nThe c-Myc protein is an important regulator of normal cell physiology and in tumor cells it plays an important role in activating oncogenic pathways [Soucek & Evan, Curr Opin Genet Dev 2010, 20:91-95]."}, "[3]": {"tested_on": "pH2AX in H9C2 cells", "assay": "Phosphorylated H2AX (Western blot), 24 or 48 hours", "assay_type": "cell-based, rat", "conditions": "FIG. 13B", "method": "(§2) The effects of the abovementioned HDAC inhibitors on DNA damage and repair were then assessed by evaluating changes in levels of phosphorylated histone H2AX (pH2AX), a marker of DNA double-strand breaks, and Rad51, a marker of homologous recombination-guided DNA repair of double-strand breaks [Nagathihalli & Nagaraju, Biochim Biophys Acta 2011, 1816:209-218; Rogakou et al., J Biol Chem 1998, 273:5858-5868].\n(§3) U251 and H9C2 cells were treated with the HDAC inhibitors for 24 or 48 hours, and then subjected to Western blot analysis."}, "[4]": {"tested_on": "Rad51 in H9C2 cells", "assay": "Rad51 (Western blot), 24 or 48 hours", "assay_type": "cell-based, rat", "conditions": "FIG. 14B", "method": "as §2, §3"}, "[5]": {"tested_on": "MCP-1", "assay": "MCP-1 gene expression in MDA-MB-231 cells (qRT-PCR)", "assay_type": "cell-based, human", "conditions": "combination with paclitaxel, FIG. 7C", "method": "as §1"}, "[6]": {"tested_on": "VEGF", "assay": "VEGF immunohistochemistry in tumor and heart of xenograft mice", "assay_type": "in vivo", "conditions": "FIG. 4F", "method": "The pro-angiogenic factors basic fibroblast growth factor (bFGF) and vascular endothelial growth factor (VEGF) are potent angiogenic stimulators. The expression of bFGF in the tumor and in the heart was evaluated by Western blot and qRT-PCR analyses and expression of VEGF by IHC."}, "[7]": {"tested_on": "PBL", "assay": "Median-effect drug interaction, MTT viability, 72 h", "assay_type": "cell-based", "conditions": "Homo sapiens", "method": "(§4) Cell viability was determined by an MTT cell viability assay after 48 hours. MyLa cells (10^4 cells/well), Hut78 cells (5×10^3 cells/well) and normal PBLs (10^5 cells/well) were seeded in 96 well-plates. The PBLs were activated with 40 μg/10^6 cells of phytohemagglutinine (PHA) for 24 h before the experiment.\n(§5) The ratios of the drug combination were based on the ratio of their IC50 of each drug alone. Cell viability was determined by MTT assay, as described hereinabove. The drugs were added to the cells and incubated for 72 h."}, "[8]": {"tested_on": "H9C2 cardiomyoblasts", "assay_type": "cell-based, rat", "method": "Cell viability by flow cytometry analysis (FACS) analysis was determined using the Mebcyto apoptosis kit (MBL-Japan). The cell lines 4T1, U251 (2×10^5 cells/well), astrocytes and the cardiomyoblastic cell line H9C2 (5×10^5 cells/well) were seeded in six-well plates. Following treatment they were trypsinized, washed with PBS, resuspended in […] of binding buffer and double-stained with annexin V-FITC and propidium iodide (PI) according to the manufacturer's instructions. The stained cells were subjected to FACS analyses (Calibur cytometer, Becton Dickinson) where 30,000 cells were allowed to flow for each determination point and the percentage of cells in each state (viability or death) was defined by their distribution in fluorescence dot-plots using WinMdi 2.8 software (Scripps Research Institute, La-Jolla, USA).\nThe apoptotic effect of AN446, Dox and their combination was evaluated in U251 and 4T1 cancer cells, and in the non-cancerous rat cardiomyoblast cell line (H9C2) and in primary rat astrocytes, using procedures previously described for AN7 [Tarasenko et al., Invest New Drugs 2012, 30:130-143]."}, "[9]": {"tested_on": "acetylated H3 histone in U251 glioblastoma cells", "assay": "Histone H3 acetylation (Western blot), 24 hours", "assay_type": "cell-based, human", "conditions": "FIG. 12", "method": "The effects of the abovementioned HDAC inhibitors on histone acetylation were also compared. U251 and H9C2 cells were treated with the HDAC inhibitors for 24 hours (according to procedures described hereinabove with respect to FIGS. 9 and 10), and then subjected to Western blot analysis."}, "[10]": {"tested_on": "10 different cancer cell lines", "assay": "Viability assay (Hoechst for adherent cells, MTT for suspension cells), 72 h", "procedure": "Hoechst assay: 22RV-1, MCF-7, MCF-7DX, 4T1, U251, and T47D cells (3×10^3 cells/well) and NCI-N87 (8×10^3 cells/well) were seeded in tissue culture in growth medium for 24 h in 96-well plates (in triplicate) and then exposed to different concentrations (titration) of the tested drug for 72 h at 37° C. The plates were then rinsed with PBS and fixed with 100 ml of 70% ethanol for 30 min. […] The fluorescence was measured (excitation at 390 nm and emission at 460 nm) with a Synergy III Fluorometer-Elisa reader (BioTek Instruments, Inc. Germany). The viability of cells grown in suspension was measured by the MTT assay. HL-60, Daudi and Jurkat cells were seeded (5×10^3 cells/well) in 96-well plates in growth medium and immediately exposed to different concentrations (titration) of the tested drugs (in triplicate). After 72 h incubation, the MTT reagent in PBS (10 ml of 5 mg/ml) was added to the cell suspension and incubated for an additional 3 h. Then, 100 ml of 0.04 M HCl in isopropanol was added and the absorbance at 570 nm measured using a Synergy III Fluorometer-spectrophotometer ELISA reader."}, "[11]": {"tested_on": "proliferating fibroblasts in cardiac tissue", "assay": "Proliferating fibroblasts in heart sections (Ki67 / vimentin immunostaining)", "assay_type": "in vivo, mice", "conditions": "co-administration with doxorubicin, FIGS. 8B, 8C", "description": "In addition, by double-staining heart sections by immunostaining for the fibroblast marker vimentin and the proliferation marker Ki67, it was observed that most of the proliferating (Ki67-positive) cells in hearts of doxorubicin-treated mice were fibroblasts (vimentin-positive)."}, "[12]": {"tested_on": "TLR4", "assay": "TLR4 expression in LPS-treated THP1 cells (anti-TLR4 antibodies, FACS)", "assay_type": "cell-based", "conditions": "1 μg/ml LPS, AN446 20 or 40 μM, FIG. 7A", "method": "as §1"}, "[13]": {"tested_on": "HUT-78 CTCL cells", "assay": "Median-effect drug interaction, MTT viability, 72 h", "assay_type": "cell-based, human", "conditions": "Homo sapiens", "method": "as §4, §5"}, "[14]": {"tested_on": "U251 human glioblastoma xenograft", "assay": "Glioblastoma xenograft model (survival, body weight, tumor volume, tumor weight, Ki-67)", "conditions": "for tumor volume of vehicle-treated group relative to treated group: from day 11, FIG. 3C", "procedure": "Xenograft of glioblastoma: 8- to 10-week-old male Hsd athymic FOXN (Harlan, Jerusalem, Israel) were inoculated sc in the flanks with 5×10^6 U251 cells. Tumor length (L) and width (W) were measured with a caliper twice weekly. Tumor volumes were calculated according to the formula: (L×W2)/2. When the tumor was established (volume of 50-100 mm^3) the mice were randomly divided into six groups treated with: vehicle control (saline); ip Dox 4 mg/kg once weekly; po AN446 25 mg/kg thrice a week; po AN7 50 mg/kg thrice a week; combination of AN446+Dox (4 mg/kg ip Dox once a week and 25 mg/kg po AN446 thrice a week); AN7+Dox (4 mg/kg ip Dox once a week and 50 mg/kg po AN7 thrice weekly). Untreated, non-bearing tumor naive mice were maintained under the same conditions. The experiment was terminated after 25 treatment days, the mice were sacrificed under CO2 and their tumors and hearts were removed, weighed and divided into parts dedicated for immunohistochemistry (IHC) and the rest were frozen (−80° C.) for Western blot and Quantitative PCR (qRT-PCR) analyses.\nInactivation of avidin-biotin nonspecific binding was prevented by a blocking kit, according to the manufacturer's protocol (Vector Laboratories). […] The secondary antibody was biotin conjugated goat anti-rabbit or anti-mouse IgG. Slides were then stained with the ABC peroxidase system, developed with diaminobenzidine (DAB) (Vector Laboratories) and counterstained with hematoxylin (Bio-Optica, Milano, Italy). The slides were examined using an Olympus BX 52 light microscope, and images were taken with an Olympus DP50 digital camera system.\nMice were implanted subcutaneously with U251 cells and when the tumors reached 50-100 mm^3 treatments were initiated. Survival was evaluated by the Kaplan-Meier end-product analysis, where treatment failure (the experimental end points) was a loss of ˜20% body weight, or a tumor volume of >1 cm^3."}}, "note": "Read-outs that look alike come from different tables or passages of the source.", "data": [{"compound": "CCCC(CCC)C(=O)Nc1nc2c(ncn2COCCOC(=O)C(CCC)CCC)c(=O)[nH]1", "note": "[AN446, N-valproyl-9-(2-valproyloxy)ethoxymethyl-guanine]", "values": [{"measurement": "LPS-induced expression of IL-6", "setting": "[1]", "value": "suppressed"}, {"measurement": "c-Myc protein expression in the hearts", "setting": "[2]; heart, FIG. 5B", "value": "significantly increased its expression to a level higher than in naive or vehicle-treated mice"}, {"measurement": "c-Myc protein expression in tumors", "setting": "[2]; tumor, FIG. 5A", "value": "decreased dramatically"}, {"measurement": "pH2AX levels in cardiomyocytes (H9C2)", "setting": "[3]", "value": "did not increase pH2AX levels"}, {"measurement": "expression of Rad51 in cardiomyocytes (H9C2)", "setting": "[4]", "value": "moderately increased expression"}, {"measurement": "paclitaxel-induced increase in expression of MCP-1", "setting": "[5]", "value": "significantly attenuated"}, {"measurement": "VEGF expression in the heart", "setting": "[6]", "value": "elevated"}, {"measurement": "IC50", "setting": "[7]; read-out: com IC50, PBL, in combination with Dox", "value": 187, "unit": "µM"}, {"measurement": "IC50", "setting": "[7]; single agent, Table 2", "value": 198, "unit": "µM"}, {"measurement": "cell death in H9C2 cardiomyoblasts", "setting": "[8]; 24, 48 or 72 hours, each inhibitor at its U251 IC50, FIG. 10", "value": "did not induce significant cardiomyocyte cell death"}, {"measurement": "viability / mortality of H9C2 cells", "setting": "[8]; noncancerous cells, combination compared to Dox alone, FIG. 1C", "value": "did not substantially affect the viability"}, {"measurement": "histone acetylation in U251 cancer cells", "setting": "[9]", "value": "increased histone acetylation considerably"}, {"measurement": "IC50", "setting": "[10]; 72 h, read-out: IC50 (cell viability)", "value": "20 to 46", "unit": "µM"}, {"measurement": "potency in reducing the viability of cancer cells relative to AN7", "setting": "[10]; from IC50 values, FIG. 1A", "value": "2-5 fold"}, {"measurement": "doxorubicin-induced proliferation of fibroblasts in cardiac tissue", "setting": "[11]", "value": "significantly reduced the doxorubicin-induced proliferation of fibroblasts"}, {"measurement": "LPS-induced expression of TLR4", "setting": "[12]", "value": "suppressed"}, {"measurement": "IC50", "setting": "[13]; HuT78, HUT-78, single agent, Table 2", "value": 28, "unit": "µM"}, {"measurement": "IC50", "setting": "[13]; HuT78, read-out: com IC50, HUT-78, in combination with Dox", "value": 11, "unit": "µM"}, {"measurement": "survival of mice when added to Dox treatment", "setting": "[14]; added to Dox 4 mg/kg ip once a week, day 25, FIG. 3A", "value": 80, "unit": "%"}, {"measurement": "body weight loss when added to Dox treatment", "setting": "[14]; added to Dox 4 mg/kg, FIG. 3B", "value": "significant attenuation of body weight loss"}, {"measurement": "Ki-67 positive (proliferating) cells in tumors", "setting": "[14]; in combination with Dox, FIG. 3F", "value": "reduced the proliferating cells to a level significantly lower than any of the single drug treatments"}, {"measurement": "tumor volume of vehicle-treated group relative to treated group", "setting": "[14]; in combination with Dox", "value": 3, "unit": "fold"}, {"measurement": "Ki-67 positive cells in tumors", "setting": "[14]; single agent vs vehicle, FIGS. 3E, 3F", "value": "considerably more Ki-67 positive cells were detected in tumors of the vehicle-treated mice"}, {"measurement": "tumor volume of vehicle-treated group relative to treated group", "setting": "[14]; single agent", "value": 2, "unit": "fold"}, {"measurement": "survival of mice until end of experiment (day 25)", "setting": "[14]; single agent: AN446 25 mg/kg or AN7 50 mg/kg po thrice weekly, Dox 4 mg/kg ip once a week, FIG. 3A", "value": 100, "unit": "%"}]}]}
